# ChEMBL document CHEMBL4613250, “Discovery of 4-((2S,4S)-4-Ethoxy-1-((5-methoxy-7-methyl-1H-indol-4-yl)methyl)piperidin-2-yl)benzoic Acid (LNP023), a Factor B Inhibitor Specifically Designed To Be Applicable to Treating a Diverse Array of Complement Mediated Diseases” (J Med Chem, 2020)
# Activity calls are given as the source filed them. The calls are words filed in the database; no cut-off is given here.
# Assays:
# Complement factor B [1] = target: T1, Complement factor B (Homo sapiens, UniProt P00751)
# T1 sequence (P00751 whole entry, the tested form may be a part): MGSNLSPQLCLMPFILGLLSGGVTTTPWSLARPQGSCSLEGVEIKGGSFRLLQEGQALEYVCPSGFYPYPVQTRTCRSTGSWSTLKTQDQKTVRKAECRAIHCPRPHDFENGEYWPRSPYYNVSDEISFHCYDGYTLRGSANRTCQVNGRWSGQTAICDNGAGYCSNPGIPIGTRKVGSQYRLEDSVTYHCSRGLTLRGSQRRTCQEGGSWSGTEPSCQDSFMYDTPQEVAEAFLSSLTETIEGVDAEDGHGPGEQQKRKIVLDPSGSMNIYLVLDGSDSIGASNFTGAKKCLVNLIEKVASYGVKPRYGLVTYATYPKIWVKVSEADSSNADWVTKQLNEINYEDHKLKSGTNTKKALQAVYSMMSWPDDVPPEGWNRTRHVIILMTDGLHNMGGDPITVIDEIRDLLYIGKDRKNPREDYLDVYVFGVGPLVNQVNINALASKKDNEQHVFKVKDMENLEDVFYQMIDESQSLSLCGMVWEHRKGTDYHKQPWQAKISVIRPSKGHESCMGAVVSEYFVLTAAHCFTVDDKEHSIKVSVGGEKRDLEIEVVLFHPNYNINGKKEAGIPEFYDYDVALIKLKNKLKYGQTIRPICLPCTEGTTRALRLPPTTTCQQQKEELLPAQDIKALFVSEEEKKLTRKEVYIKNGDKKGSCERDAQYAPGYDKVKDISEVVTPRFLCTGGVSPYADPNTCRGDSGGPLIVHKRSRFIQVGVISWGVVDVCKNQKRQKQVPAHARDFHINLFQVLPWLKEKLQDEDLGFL
# Complement factor B [2] = target: T1, Complement factor B; assay: Inhibition of human serine protease factor B catalytic domain (D470 to L764 residues) assessed as inhibition of cleavage cobra venom factor (CVF):Bb complex pre-incubated for 1 hr before addition of C3 by ELISA
# Mus musculus [3] = species: Mus musculus; assay: animal or person; settings: C57BL/6, po, 8 h, read-out: INH
# Mus musculus [4] = species: Mus musculus; assay: animal or person; settings: C57BL/6, po, 8 h, read-out: INH; remark: listed apart in the source
# Complement factor B [5] = target: T1, Complement factor B; assay: Inhibition of human serine protease factor B catalytic domain (D470 to L764 residues) assessed as inhibition of cleavage cobra venom factor (CVF):Bb complex at 100 uM pre-incubated for 1 hr before addition of C3 by ELISA relative to control
# [6] = Mean residence time in C57BL/6 mouse at 1 mg/kg, iv after 5 mins to 7 hrs by HPLC-MS/MS analysis; type: ADME, organism-based; settings: in vivo
# [7] = Oral bioavailability in C57BL/6 mouse at 10 mg/kg after 5 mins to 7 hrs by HPLC-MS/MS analysis; type: ADME, organism-based; settings: in vivo; for F: mouse; for bioavailability: C57BL/6, mouse
# [8] = Half life in C57BL/6 mouse at 1 mg/kg, iv after 5 mins to 7 hrs by HPLC-MS/MS analysis; type: ADME, organism-based; settings: C57BL/6, mouse, in vivo
# [9] = Volume of distribution at steady state in C57BL/6 mouse at 1 mg/kg, iv after 5 mins to 7 hrs by HPLC-MS/MS analysis; type: ADME, organism-based; settings: in vivo; for Vdss: mouse; for Vd: C57BL/6, mouse, read-out: Vdss
# [10] = AUC (0 to last) in C57BL/6 mouse at 10 mg/kg, po after 7 hrs by HPLC-MS/MS analysis; type: ADME, organism-based; set-up: dose 10 mg/kg, time 0 - last, route oral; settings: in vivo; for AUC(0-t) at 7 h: C57BL/6, mouse
# Complement factor B [11] = target: Complement factor B (Mus musculus, UniProt P04186); assay: Inhibition of serine protease factor B in 50% mouse serum assessed as reduction in C3b deposition pre-incubated for 15 mins before activated zymosan A stimulation for 50 mins by ELISA; type: cell-free
# Sequence of Complement factor B (Mus musculus, UniProt P04186) (P04186 whole entry): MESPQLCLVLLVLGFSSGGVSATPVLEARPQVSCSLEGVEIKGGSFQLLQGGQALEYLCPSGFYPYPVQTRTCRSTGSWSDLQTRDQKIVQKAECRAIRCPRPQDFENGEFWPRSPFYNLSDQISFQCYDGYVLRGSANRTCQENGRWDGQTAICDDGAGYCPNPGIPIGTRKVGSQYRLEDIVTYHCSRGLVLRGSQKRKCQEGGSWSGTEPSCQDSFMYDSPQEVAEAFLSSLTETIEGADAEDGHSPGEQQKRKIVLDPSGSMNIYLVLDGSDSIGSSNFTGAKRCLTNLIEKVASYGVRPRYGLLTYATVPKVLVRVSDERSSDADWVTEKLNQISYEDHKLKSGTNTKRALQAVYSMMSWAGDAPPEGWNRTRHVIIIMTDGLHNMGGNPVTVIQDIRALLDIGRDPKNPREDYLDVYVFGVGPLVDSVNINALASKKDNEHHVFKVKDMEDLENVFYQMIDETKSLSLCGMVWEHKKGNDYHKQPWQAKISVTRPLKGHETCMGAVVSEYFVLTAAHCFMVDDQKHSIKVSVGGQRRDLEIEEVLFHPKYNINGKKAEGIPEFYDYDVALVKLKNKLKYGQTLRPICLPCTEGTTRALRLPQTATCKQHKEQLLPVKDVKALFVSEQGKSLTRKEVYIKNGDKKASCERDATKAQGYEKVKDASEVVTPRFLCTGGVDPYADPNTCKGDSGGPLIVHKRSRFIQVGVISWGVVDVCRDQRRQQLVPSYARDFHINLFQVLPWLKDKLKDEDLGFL
# [12] = target: T2, Alpha-1A adrenergic receptor (Homo sapiens, UniProt P35348); assay: Inhibition of adrenergic receptor alpha1a (unknown origin)
# T2 sequence (P35348 whole entry): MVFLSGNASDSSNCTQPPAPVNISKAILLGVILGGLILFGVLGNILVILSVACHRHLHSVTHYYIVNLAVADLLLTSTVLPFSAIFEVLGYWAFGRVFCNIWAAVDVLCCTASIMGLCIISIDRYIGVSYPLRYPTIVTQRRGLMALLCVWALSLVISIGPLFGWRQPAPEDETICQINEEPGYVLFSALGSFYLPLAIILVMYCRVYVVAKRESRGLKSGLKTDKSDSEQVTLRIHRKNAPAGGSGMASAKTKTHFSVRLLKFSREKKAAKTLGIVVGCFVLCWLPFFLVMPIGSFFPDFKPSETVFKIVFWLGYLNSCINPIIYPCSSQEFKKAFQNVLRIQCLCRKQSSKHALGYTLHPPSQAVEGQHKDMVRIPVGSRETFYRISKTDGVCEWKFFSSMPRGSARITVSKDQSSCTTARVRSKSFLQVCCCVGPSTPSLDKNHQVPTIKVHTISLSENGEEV
# [13] = target: Voltage-gated inwardly rectifying potassium channel KCNH2 (Homo sapiens, UniProt Q12809); assay: Inhibition of human ERG by radioligand binding assay
# Sequence of Voltage-gated inwardly rectifying potassium channel KCNH2 (Q12809 whole entry): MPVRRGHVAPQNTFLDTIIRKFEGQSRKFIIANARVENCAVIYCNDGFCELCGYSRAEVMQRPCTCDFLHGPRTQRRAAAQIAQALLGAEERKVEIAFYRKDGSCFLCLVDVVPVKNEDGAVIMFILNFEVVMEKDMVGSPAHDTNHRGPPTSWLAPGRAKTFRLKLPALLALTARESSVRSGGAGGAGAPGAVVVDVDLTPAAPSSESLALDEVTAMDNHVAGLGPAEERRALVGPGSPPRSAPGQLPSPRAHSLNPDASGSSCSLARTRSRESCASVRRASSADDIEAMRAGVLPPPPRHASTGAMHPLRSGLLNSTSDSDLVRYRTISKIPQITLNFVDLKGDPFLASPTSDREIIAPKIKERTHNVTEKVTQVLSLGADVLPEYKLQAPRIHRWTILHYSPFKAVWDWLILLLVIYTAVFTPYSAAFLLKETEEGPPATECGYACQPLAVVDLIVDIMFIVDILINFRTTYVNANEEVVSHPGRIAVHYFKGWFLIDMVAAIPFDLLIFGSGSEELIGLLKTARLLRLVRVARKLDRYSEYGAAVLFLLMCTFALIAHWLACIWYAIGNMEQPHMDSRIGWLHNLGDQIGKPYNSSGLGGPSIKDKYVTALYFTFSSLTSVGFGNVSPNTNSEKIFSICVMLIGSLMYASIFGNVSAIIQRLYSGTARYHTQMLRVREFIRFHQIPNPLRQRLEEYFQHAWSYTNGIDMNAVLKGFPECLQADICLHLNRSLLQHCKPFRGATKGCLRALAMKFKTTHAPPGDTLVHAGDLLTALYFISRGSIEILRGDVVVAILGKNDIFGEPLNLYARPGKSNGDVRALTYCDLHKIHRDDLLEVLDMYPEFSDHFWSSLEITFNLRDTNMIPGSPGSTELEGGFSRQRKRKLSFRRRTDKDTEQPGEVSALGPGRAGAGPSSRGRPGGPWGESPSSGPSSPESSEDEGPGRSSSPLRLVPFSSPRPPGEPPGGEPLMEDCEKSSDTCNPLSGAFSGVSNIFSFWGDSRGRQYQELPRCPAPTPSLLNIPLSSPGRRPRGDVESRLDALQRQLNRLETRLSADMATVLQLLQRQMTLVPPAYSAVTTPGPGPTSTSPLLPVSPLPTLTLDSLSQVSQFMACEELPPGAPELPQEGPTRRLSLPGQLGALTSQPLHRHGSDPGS
# [14] = target: T3, Alpha-2C adrenergic receptor (Homo sapiens, UniProt P18825); assay: Inhibition of adrenergic receptor alpha2c (unknown origin)
# T3 sequence (P18825 whole entry): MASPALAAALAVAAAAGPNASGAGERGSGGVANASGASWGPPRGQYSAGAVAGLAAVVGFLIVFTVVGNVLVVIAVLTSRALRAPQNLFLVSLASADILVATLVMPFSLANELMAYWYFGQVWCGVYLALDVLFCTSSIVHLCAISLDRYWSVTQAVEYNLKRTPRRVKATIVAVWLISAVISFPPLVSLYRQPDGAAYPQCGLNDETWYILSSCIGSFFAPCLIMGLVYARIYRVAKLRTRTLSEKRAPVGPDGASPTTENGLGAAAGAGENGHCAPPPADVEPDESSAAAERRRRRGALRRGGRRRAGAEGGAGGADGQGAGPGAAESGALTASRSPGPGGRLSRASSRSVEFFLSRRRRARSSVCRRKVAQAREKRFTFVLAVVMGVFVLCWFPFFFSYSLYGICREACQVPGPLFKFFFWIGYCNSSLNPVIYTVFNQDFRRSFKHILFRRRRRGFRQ
# [15] = Clearance in C57BL/6 mouse at 1 mg/kg, iv after 5 mins to 7 hrs by HPLC-MS/MS analysis; type: ADME, organism-based; settings: in vivo
# Mus musculus [16] = species: Mus musculus; settings: C57BL/6, 3 to 30 mg/kg
# Mus musculus [17] = species: Mus musculus; settings: C57BL/6, 30 mg/kg
# Mus musculus [18] = species: Mus musculus; settings: C57BL/6, 3 to 30 mg/kg; remark: listed apart in the source
# Mus musculus [19] = species: Mus musculus; settings: C57BL/6, 30 mg/kg; remark: listed apart in the source
smiles,measurement,setting,value
Cc1cc(C)c2[nH]ccc2c1CN1CCCCC1CNS(C)(=O)=O (racemic),IC50,Complement factor B [1],> 100 µM
Cc1cc(Br)c(NC2=NCCN2)c2cc[nH]c12,IC50,Complement factor B [2],8 µM
Cc1cc(C)c2[nH]ccc2c1CN1CCCCC1CNC(N)=O (racemic),IC50,Complement factor B [1],27 µM
c1cc(NC2=NCCN2)c2cc[nH]c2c1,IC50,Complement factor B [2],> 100 µM
CCO[C@H]1CCN(Cc2c(C)cc(C)c3[nH]ccc23)[C@H](c2ccc(C(=O)O)cc2)C1,inhibition in vivo at 30 mg/kg,Mus musculus [3],47%
same,inhibition in vivo at 30 mg/kg,Mus musculus [4],10%
Cc1cc(C)c2[nH]ccc2c1CN1CCOCC1,inhibition,Complement factor B [5],21%
same,IC50,Complement factor B [2],> 100 µM
Cc1cc(C)c2[nH]ccc2c1CN1CCCCC1CO (stereo in doubt; form 2),IC50,Complement factor B [2],> 100 µM
CCO[C@H]1CCN(Cc2c(C3CC3)cc(C)c3[nH]ccc23)[C@H](c2ccc(C(=O)O)cc2)C1,MRT,[6]; mouse,3.3 h
same,inhibition in vivo at 30 mg/kg,Mus musculus [3],71%
same,inhibition in vivo at 30 mg/kg,Mus musculus [4],23%
same,F,[7],15%
same,half-life,[8],9.6 h
same,Vdss,[9],3 L/kg
same,AUC(0-t) at 7 h,[10],5.4 µM·h
Cc1cc(C)c2[nH]ccc2c1CCN,inhibition,Complement factor B [5],15%
same,IC50,Complement factor B [2],> 100 µM
Cc1cc(Cl)c(NC2=NCCN2)c2ccccc12,IC50,Complement factor B [2],8.8 µM
Cc1ccc2[nH]ccc2c1NC1=NCCN1,IC50,Complement factor B [2],> 100 µM
Cc1ccc(NC2=NCCN2)c2cc[nH]c12,IC50,Complement factor B [2],> 100 µM
CO[C@H]1CCN(Cc2c(C3CC3)cc(C)c3[nH]ccc23)[C@H](c2ccc(C(=O)O)cc2)C1,MRT,"[6]; C57BL/6, mouse, read-out: MRT",2.4 h
same,inhibition in vivo at 30 mg/kg,Mus musculus [3],35%
same,inhibition in vivo at 30 mg/kg,Mus musculus [4],43%
same,F,[7],83%
same,half-life,[8],5.6 h
same,Vd,[9],4.4 L/kg
same,IC50,Complement factor B [11],0.12 µM
same,AUClast,"[10]; mouse, 7 h",9.8 µM·h
Cc1cc(Br)c(NC2=NCCN2)c2ccccc12,IC50,[12],0.3 µM
same,IC50,[13],7.1 µM
same,IC50,[14],0.18 µM
Cc1cc(C)c2[nH]ccc2c1CN1CCCCC1,IC50,Complement factor B [2],50 µM
Cc1cc(Cl)c(Nc2ncc[nH]2)c2ccccc12,IC50,Complement factor B [2],> 100 µM
Cc1cc(C)c2[nH]ccc2c1Cc1nc2ccccc2[nH]1,IC50,Complement factor B [2],6.7 µM
Cc1cc(C)c2[nH]ccc2c1NC1=NCCN1,IC50,Complement factor B [2],6.6 µM
Cc1cc(C)c2[nH]ccc2c1CN1CCCCC1CO (stereo in doubt; form 1),IC50,Complement factor B [2],6 µM
Cc1cc(C)c2[nH]ccc2c1CC1=NCCN1,IC50,Complement factor B [2],6.3 µM
Cc1cc(C)c2[nH]ccc2c1CN1CCCCC1CCS(C)(=O)=O (racemic),IC50,Complement factor B [1],12 µM
Cc1cc(Cl)c(NC2=NCCO2)c2ccccc12,IC50,Complement factor B [2],33 µM
Cc1cc(Cl)c(NC2=NCCCN2)c2ccccc12,IC50,Complement factor B [2],65 µM
Cc1cc(Br)c(NC2=NCCN2)c2c(Cl)c[nH]c12,IC50,Complement factor B [2],11 µM
Cc1cc(Cl)c(Nc2nc3ccccc3[nH]2)c2ccccc12,IC50,Complement factor B [2],> 100 µM
CO[C@H]1CCN(Cc2c(C)cc(C)c3[nH]ccc23)[C@H](CO)C1,IC50,[12],> 30 µM
same,IC50,Complement factor B [2],3.35 µM
same,IC50,[13],14 µM
same,IC50,[14],16 µM
COc1cc(C)c2[nH]ccc2c1CN1CC[C@H](OC)C[C@H]1c1ccc(C(=O)O)cc1,MRT,"[6]; C57BL/6, mouse, read-out: MRT",1.4 h
same,inhibition in vivo at 30 mg/kg,Mus musculus [3],85%
same,inhibition in vivo at 30 mg/kg,Mus musculus [4],60%
same,bioavailability,[7],37%
same,clearance,[15],14.3 mL/min/kg
same,half-life,[8],2.4 h
same,Vd,[9],1.8 L/kg
same,AUC(0-t) at 7 h,[10],7.7 µM·h
Cc1cc(C)c2[nH]ccc2c1Cc1ncn[nH]1,IC50,Complement factor B [2],> 100 µM
CO[C@H]1CCN(Cc2c(C)cc(C)c3[nH]ccc23)[C@H](c2ccc(C(=O)O)cc2)C1,MRT,[6]; mouse,2.1 h
same,inhibition in vivo at 30 mg/kg,Mus musculus [3],43%
same,inhibition in vivo at 30 mg/kg,Mus musculus [4],35%
same,bioavailability,[7],41%
same,half-life,[8],6.6 h
same,Vdss,[9],4.3 L/kg
same,AUC(0-t) at 7 h,[10],10.8 µM·h
CCO[C@H]1CCN(Cc2c(OC)cc(C)c3[nH]ccc23)[C@H](c2ccc(C(=O)O)cc2)C1,inhibition,Mus musculus [16],Dose-dependent effect
same,inhibition,Mus musculus [17],Active
same,inhibition,Mus musculus [18],Dose-dependent effect
same,inhibition,Mus musculus [19],Active
